Values quoted from earlier work, collected in patent publication US20110264374A1, “Method, Computer Program Product and System for Individual Assessment of Alcohol Sensitivity” (UNIVERSITY OF VIRGINIA PATENT FOUNDATION, priority 2007, published 2011).

Assays:
[1] = blood ethanol, oral ingestion; adopted from the literature [16, 24, 25]

## CCO [ethanol, Ethyl Alcohol]
After consumption of one standard drink
  time to peak amount of alcohol in the blood: 30 to 45 min
In vivo
  remainder not metabolized, excreted in sweat, urine and breath: 10%
  share of alcohol entering the body completely metabolized in the liver: More than 90%
Oral consumption
  share of consumed alcohol absorbed from the small intestine: approx. 80%
  share of consumed alcohol absorbed from the stomach: approx. 20%
[1]
  AUC (area under the curve): 230 µg·h/mL
  Cmax: 161.4 µg/mL
  tmax: 47 min
